pIC50: −log10 of the molar value.
Key:
Test in all cases: biochemical
Design in all cases: species or system HEK293/K-562/placenta mixed human extract; Kinobeads chemoproteomic competition binding, quantified by TMT LC-MS/MS, dose response up to 20 uM
[1] = molecular target: BMP2K (Homo sapiens, UniProt Q9NSY1)
[2] = molecular target: DDR1 (Homo sapiens, UniProt Q08345)
[3] = molecular target: DYRK1A (Homo sapiens, UniProt Q13627)
[4] = molecular target: EPHA4 (Homo sapiens, UniProt P54764)
[5] = molecular target: EPHB2 (Homo sapiens, UniProt P29323)
[6] = molecular target: FRK (Homo sapiens, UniProt P42685)
[7] = molecular target: IKBKB (Homo sapiens, UniProt O14920)
[8] = molecular target: LRRK2 (Homo sapiens, UniProt Q5S007)
[9] = molecular target: MAP2K4 (Homo sapiens, UniProt P45985)
[10] = molecular target: MAP3K5 (Homo sapiens, UniProt Q99683)
[11] = molecular target: MAPK14 (Homo sapiens, UniProt Q16539)
[12] = molecular target: MAPK9 (Homo sapiens, UniProt P45984)
[13] = molecular target: MAST2 (Homo sapiens, UniProt Q6P0Q8)
[14] = molecular target: MINK1 (Homo sapiens, UniProt Q8N4C8)
[15] = molecular target: PIM1 (Homo sapiens, UniProt P11309)
[16] = molecular target: PRKAG2 (Homo sapiens, UniProt Q9UGJ0)
[17] = molecular target: PTK2B (Homo sapiens, UniProt Q14289)
[18] = molecular target: SGK3 (Homo sapiens, UniProt Q96BR1)
[19] = molecular target: SIK1 (Homo sapiens, UniProt P57059)
[20] = molecular target: STK3 (Homo sapiens, UniProt Q13188)
[21] = molecular target: ULK3 (Homo sapiens, UniProt Q6PHR2)

Sequence of MAP3K5 (Q99683 whole entry): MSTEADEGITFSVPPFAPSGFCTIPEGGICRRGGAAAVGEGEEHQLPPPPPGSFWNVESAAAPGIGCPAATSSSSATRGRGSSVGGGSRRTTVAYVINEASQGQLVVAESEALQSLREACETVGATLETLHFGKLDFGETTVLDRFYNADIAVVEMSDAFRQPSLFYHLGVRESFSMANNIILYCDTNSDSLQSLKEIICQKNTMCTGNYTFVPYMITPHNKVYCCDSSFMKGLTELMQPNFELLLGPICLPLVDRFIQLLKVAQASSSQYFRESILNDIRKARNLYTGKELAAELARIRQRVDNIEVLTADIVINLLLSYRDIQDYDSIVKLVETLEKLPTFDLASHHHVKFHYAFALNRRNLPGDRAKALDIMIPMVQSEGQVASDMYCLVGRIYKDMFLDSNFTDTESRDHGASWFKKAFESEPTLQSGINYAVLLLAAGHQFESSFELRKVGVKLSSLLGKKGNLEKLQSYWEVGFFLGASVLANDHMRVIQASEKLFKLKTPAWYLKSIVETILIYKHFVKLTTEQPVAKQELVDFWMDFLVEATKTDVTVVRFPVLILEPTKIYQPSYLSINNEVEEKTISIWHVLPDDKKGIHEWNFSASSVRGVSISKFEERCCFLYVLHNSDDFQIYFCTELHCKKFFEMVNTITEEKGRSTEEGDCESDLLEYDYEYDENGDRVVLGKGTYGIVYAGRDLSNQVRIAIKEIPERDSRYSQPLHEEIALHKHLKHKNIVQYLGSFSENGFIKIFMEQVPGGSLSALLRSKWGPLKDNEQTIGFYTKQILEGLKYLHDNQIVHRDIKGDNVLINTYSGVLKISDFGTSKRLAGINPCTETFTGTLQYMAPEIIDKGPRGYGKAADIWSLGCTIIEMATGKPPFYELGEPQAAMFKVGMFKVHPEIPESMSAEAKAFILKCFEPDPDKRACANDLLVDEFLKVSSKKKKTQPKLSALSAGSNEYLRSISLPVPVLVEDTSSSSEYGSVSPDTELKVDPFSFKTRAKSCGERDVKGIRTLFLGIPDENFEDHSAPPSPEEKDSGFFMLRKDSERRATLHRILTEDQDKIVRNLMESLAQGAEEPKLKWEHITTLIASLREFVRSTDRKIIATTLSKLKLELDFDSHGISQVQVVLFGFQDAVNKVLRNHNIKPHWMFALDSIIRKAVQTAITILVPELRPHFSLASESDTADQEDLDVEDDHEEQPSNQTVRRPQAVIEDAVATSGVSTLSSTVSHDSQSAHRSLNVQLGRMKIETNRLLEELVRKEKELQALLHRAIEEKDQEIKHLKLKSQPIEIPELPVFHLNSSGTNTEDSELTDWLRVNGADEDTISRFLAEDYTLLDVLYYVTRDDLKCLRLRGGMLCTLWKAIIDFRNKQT
Sequence of MAP2K4 (P45985 whole entry): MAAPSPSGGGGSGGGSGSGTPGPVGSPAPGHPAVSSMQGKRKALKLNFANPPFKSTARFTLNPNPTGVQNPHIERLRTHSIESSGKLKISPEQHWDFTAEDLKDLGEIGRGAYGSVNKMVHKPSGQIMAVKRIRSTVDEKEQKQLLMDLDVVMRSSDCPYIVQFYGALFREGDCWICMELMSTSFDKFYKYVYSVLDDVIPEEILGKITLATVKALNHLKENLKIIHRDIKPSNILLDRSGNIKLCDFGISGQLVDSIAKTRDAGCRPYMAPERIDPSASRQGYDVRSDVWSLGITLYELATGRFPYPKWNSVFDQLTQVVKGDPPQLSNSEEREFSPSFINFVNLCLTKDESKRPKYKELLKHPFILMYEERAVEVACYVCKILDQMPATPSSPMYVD
Sequence of MINK1 (Q8N4C8 whole entry): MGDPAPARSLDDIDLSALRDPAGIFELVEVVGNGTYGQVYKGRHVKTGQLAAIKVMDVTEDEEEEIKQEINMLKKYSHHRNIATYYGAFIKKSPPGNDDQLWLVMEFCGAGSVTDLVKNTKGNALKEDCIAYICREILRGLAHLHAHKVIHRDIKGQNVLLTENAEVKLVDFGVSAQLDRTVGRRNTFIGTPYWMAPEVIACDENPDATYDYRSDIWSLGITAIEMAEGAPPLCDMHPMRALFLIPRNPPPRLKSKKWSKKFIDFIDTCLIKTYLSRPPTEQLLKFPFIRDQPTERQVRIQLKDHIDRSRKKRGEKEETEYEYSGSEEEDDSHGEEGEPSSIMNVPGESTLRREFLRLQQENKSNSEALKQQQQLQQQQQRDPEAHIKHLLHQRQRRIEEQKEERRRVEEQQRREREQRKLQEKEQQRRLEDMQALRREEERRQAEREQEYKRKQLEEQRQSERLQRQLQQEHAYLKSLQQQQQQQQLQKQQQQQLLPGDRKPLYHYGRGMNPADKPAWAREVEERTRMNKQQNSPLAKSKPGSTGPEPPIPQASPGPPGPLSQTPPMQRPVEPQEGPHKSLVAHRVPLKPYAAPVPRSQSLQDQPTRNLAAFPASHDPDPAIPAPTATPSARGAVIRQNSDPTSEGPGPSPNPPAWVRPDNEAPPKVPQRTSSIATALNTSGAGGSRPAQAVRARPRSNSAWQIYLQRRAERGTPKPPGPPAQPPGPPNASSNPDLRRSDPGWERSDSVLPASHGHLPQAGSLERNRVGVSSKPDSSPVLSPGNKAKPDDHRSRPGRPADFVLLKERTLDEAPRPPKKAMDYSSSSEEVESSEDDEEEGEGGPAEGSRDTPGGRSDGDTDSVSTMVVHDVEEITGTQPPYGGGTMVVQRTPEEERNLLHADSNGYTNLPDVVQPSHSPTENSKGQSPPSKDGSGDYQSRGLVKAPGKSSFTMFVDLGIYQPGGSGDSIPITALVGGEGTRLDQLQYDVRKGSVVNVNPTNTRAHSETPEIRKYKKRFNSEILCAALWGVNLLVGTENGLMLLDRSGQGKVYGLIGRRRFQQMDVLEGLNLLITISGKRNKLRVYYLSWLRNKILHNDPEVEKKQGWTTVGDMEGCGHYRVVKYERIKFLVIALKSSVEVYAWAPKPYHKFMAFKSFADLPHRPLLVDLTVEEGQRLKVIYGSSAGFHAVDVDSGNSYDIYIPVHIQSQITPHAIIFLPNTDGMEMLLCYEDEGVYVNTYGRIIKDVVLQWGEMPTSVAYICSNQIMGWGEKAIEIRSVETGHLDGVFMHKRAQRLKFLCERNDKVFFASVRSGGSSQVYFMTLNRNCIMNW
Sequence of SGK3 (Q96BR1 whole entry): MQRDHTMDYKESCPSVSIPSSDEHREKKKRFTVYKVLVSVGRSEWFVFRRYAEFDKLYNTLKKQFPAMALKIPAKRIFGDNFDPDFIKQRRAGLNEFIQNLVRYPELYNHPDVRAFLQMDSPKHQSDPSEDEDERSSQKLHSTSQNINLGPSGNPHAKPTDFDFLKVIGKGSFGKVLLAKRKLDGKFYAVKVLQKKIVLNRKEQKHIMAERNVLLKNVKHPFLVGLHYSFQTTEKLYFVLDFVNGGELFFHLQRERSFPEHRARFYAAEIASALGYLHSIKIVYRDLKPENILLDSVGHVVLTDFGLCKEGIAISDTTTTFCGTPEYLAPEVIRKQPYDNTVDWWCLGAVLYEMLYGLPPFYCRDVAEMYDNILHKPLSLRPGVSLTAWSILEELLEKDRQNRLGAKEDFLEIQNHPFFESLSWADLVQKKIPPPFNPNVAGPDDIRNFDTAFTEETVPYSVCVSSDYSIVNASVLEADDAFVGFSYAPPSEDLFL
Sequence of PRKAG2 (Q9UGJ0 whole entry): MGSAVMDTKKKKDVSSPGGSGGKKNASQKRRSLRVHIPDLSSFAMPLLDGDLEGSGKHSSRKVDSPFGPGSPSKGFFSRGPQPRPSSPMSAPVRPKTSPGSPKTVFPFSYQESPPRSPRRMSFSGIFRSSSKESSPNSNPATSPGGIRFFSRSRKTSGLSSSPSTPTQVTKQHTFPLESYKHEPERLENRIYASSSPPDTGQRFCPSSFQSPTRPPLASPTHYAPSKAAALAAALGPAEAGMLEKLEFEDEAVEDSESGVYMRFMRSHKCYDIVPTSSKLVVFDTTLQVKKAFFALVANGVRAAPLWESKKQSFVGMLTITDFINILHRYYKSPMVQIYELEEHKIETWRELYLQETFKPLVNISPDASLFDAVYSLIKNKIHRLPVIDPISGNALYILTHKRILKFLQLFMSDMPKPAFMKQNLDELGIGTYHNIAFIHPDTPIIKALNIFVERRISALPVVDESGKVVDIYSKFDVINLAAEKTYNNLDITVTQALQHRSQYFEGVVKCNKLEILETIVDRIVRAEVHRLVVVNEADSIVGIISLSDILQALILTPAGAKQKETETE
Sequence of MAPK9 (P45984 whole entry): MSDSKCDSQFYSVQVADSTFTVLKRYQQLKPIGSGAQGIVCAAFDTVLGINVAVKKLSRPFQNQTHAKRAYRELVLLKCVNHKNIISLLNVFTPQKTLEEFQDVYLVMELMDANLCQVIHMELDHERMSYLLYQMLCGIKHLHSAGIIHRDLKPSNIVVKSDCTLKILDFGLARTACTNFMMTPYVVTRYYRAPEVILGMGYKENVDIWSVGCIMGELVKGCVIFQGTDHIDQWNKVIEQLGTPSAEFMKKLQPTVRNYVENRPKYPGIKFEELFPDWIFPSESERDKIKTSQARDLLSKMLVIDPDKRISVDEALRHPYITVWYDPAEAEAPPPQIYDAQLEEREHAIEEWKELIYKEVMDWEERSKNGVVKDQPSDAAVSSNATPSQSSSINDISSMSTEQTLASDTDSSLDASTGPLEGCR
Sequence of MAPK14 (Q16539 whole entry): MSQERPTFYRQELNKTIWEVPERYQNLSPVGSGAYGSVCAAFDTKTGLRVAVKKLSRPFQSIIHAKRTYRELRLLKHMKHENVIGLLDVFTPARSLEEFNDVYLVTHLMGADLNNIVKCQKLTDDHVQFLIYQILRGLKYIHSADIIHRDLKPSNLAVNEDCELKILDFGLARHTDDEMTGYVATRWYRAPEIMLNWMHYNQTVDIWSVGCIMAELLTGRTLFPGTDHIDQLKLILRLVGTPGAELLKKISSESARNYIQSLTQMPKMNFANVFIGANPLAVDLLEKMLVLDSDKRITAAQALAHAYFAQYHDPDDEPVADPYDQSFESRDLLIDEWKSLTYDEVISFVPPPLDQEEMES

pIC50 [1]: ≤ 4.70 | pIC50 [2]: ≤ 4.70 | pIC50 [3]: ≤ 4.70 | pIC50 [4]: ≤ 4.70 | pIC50 [5]: ≤ 4.70 | pIC50 [6]: ≤ 4.70 | pIC50 [7]: ≤ 4.70 | pIC50 [8]: ≤ 4.70 | pIC50 [9]: ≤ 4.70 | pIC50 [10]: ≤ 4.70 | pIC50 [11]: ≤ 4.70 | pIC50 [12]: ≤ 4.70 | pIC50 [13]: ≤ 4.70 | pIC50 [14]: ≤ 4.70 | pIC50 [15]: ≤ 4.70 | pIC50 [16]: ≤ 4.70 | pIC50 [17]: ≤ 4.70 | pIC50 [18]: ≤ 4.70 | pIC50 [19]: ≤ 4.70 | pIC50 [20]: ≤ 4.70 | pIC50 [21]: ≤ 4.70
SMILES: COc1ccccc1-c1n[nH]c2nc(N[C@H]3CC[C@H](NS(=O)(=O)CCC(F)(F)F)CC3)nc(OC)c12 [compound 31, 3,3,3-Trifluoro-N-(trans-4-((4-methoxy-3-(2-methoxyphenyl)-1H-pyrazolo[3,4-d]pyrimidin-6-yl)amino)cyclohexyl)propane-1-sulfonamide]

Reference: paper PMC6407917, “Identification of GSK3186899/DDD853651 as a Preclinical Development Candidate for the Treatment of Visceral Leishmaniasis” (Journal of Medicinal Chemistry, 2018)
